Structures can show the parent of a compound that is named as a salt. Where two headings read alike, the source gives them in different places. Values belong to the molecule of their own block, whether it stands above or below them.
Columns and labels:
[1] = Equilibration and form conversion experiments of Compound of formula (V); type: physicochemical
[2] = Desolvation of solvate forms of Compound (VII); type: physicochemical
Description: Polymorph screening: A polymorph screen was conducted in the methylethyl ketone (MEK)/ water solvent systems, as well as in the acetonitrile (ACN), ACN/water and isopropyl acetate solvent systems. Polymorph screening techniques included crash cooling, solvent evaporation, antisolvent addition, and slurry experiments. Slurry experiments were performed on an IKA RCT hot plate with magnetic stirring set to 710 rpm. The temperature was controlled with an IKA ETS-D5 thermocouple. Solvent volumes were measured and transferred with Gibson Pipetteman volumetric pipettes. New forms that were identified as solvates were subjected to desolvation under two potential conditions: (1) drying in a vacuum oven at 40°C and (2) sitting undisturbed under ambient conditions in a fume hood. Physical characterization of all forms proceeded by X-ray powder diffraction (XRPD) and thermogravimetric analysis (TGA).
Experiment 6: Desolvation: New forms of Compound (VII) obtained in the polymorph screen suspected of being solvates were subjected to further form investigation through attempted desolvation. Forms D, E, F, G, H, I, J, K, L and Hydrate A were left to stand open to the atmosphere under ambient conditions and or were placed in a vacuum oven. […] Forms D and K produced new crystalline XRPD patterns following desolvation. […] In some embodiments, Form R ({drug7p}) is characterized by one or more peaks in an XRPD spectrum selected from the peaks listed in Table 20. Form R ({drug7p}) Peak List:
In some embodiments, Form S ({drug7q}) is characterized by one or more peaks in an XRPDspectrum selected from the peaks listed in Table 21.

[3] = Salt screening and crystalline salt characterization of Compound (VI); settings: for Hygroscopicity: ambient temperature and relative humidity conditions
Description: The screening examined acid type, acid level (equivalents), and/or type of crystallization solvent. Each plate contained 96 well plates (8 rows of 12 columns per plate). […] The solution (12.5 mL) was transferred to 24 vials. To each vial was added 0.25 M EtOH stock solutions of the following acids:
The content of each vial was transferred to 12 crystallization wells and evaporated to dryness. Upon evaporation, each well was charged with 100 µl of solvent using a robotic liquid handler. The following crystallization solvents were tested: methyl isobutyl ketone (MIBK), ethyl acetate, toluene, THF, acetonitrile, acetone, isopropanol, ethanol, methanol, 1,2-dichloroethylene, isopropanol/water (50:50), and water. Next, the plates were sealed with Teflon septa and subjected to temperature cycling. […] After the heating/cooling cycle, the contents of the wells were characterized by birefringent imaging. Perceived crystalline hits were further characterized by PXRD analysis.

Molecule: NC1(C(=O)N[C@@H](CCO)c2ccc(Cl)cc2)CCN(c2ncnc3[nH]ccc23)CC1 [Form B, (S)-4-amino-N-(1-(4-chlorophenyl)-3-hydroxypropyl)-1-(7H-pyrrolo[2,3-d]pyrimidin-4-yl)piperidine-4-carboxamide]
XRPD Result after form conversion experiment ([1]; Heated to 220 °C for 4 hours): Form A

Molecule: CC(C)(C)c1cc(C(C)(C)C)c(NC(=O)c2c[nH]c3ccccc3c2=O)cc1O [Form D ({drug7b}), N-[2,4-bis(1,1-dimethylethyl)-5-hydroxyphenyl]-1,4-dihydro-4-oxoquinoline-3-carboxamide]
XRPD pattern after attempted desolvation ([2]; ambient conditions and vacuum oven for approximately 1 month): converted to a new crystalline form of Compound (VII) designated Form R

Molecule: CC(C)(C)c1cc(C(C)(C)C)c(NC(=O)c2c[nH]c3ccccc3c2=O)cc1O [Form K ({drug7i}), N-[2,4-bis(1,1-dimethylethyl)-5-hydroxyphenyl]-1,4-dihydro-4-oxoquinoline-3-carboxamide]
XRPD pattern after attempted desolvation ([2]; ambient conditions and vacuum oven for 2 months): converted to a new crystalline form of Compound (VII) designated Form S

Molecule: N#Cc1ccc([C@H]2CCc3cncn32)c(F)c1 [HCl, 4-(R)-(6,7-dihydro-5H-pyrrolo[1,2-c]imidazol-5-yl)-3-fluoro-benzonitrile, reference compound]
Moisture gain (r.h. 25%): 0.5%
Moisture gain (r.h. 50%): 0.2%
Moisture gain (r.h. 75%): 0.2%
Moisture gain (r.h. 85%): 3.3%
Moisture gain (r.h. 95%): 23.6%

Molecule: Cl [Hydrochloric acid]
Hygroscopicity [3]: Crystalline salt; crystals were hygroscopic at ambient temperatures and relative humidity conditions; crystalline salt samples included multiple hydration states and multiple crystalline forms. Solid state NMR indicated that prepared samples contained mixture of crystalline phases.
Hygroscopicity ([3]; listed as hydrochloric acid salt): hygroscopic

Molecule: Citric acid
Hygroscopicity [3]: Crystalline salt; hygroscopic at ambient temperature and relative humidity conditions. PXRD patterns of slurry and dried material did not match.
Hygroscopicity ([3]; listed as citric acid salt): hygroscopic

Second part, led by results:

XRPD Result after form conversion experiment ([1]; Heated to 220 °C for 4 hours): Form A+C
XRPD Result after form conversion experiment ([1]; Slurry in NMP/Acetone/water at ambient for 5 days): Form A+C
XRPD Result after form conversion experiment ([1]; Slurry in NMP/Acetone/water at ambient for 10 days): Form A+C
Molecule: NC1(C(=O)N[C@@H](CCO)c2ccc(Cl)cc2)CCN(c2ncnc3[nH]ccc23)CC1 [Form C, (S)-4-amino-N-(1-(4-chlorophenyl)-3-hydroxypropyl)-1-(7H-pyrrolo[2,3-d]pyrimidin-4-yl)piperidine-4-carboxamide]

XRPD pattern after attempted desolvation ([2]; standing under ambient conditions and sitting in the vacuum oven): same XRPD patterns
Molecule: CC(C)(C)c1cc(C(C)(C)C)c(NC(=O)c2c[nH]c3ccccc3c2=O)cc1O [Form E ({drug7c}), N-[2,4-bis(1,1-dimethylethyl)-5-hydroxyphenyl]-1,4-dihydro-4-oxoquinoline-3-carboxamide]

XRPD pattern after attempted desolvation ([2]; vacuum oven for one month): became x-ray amorphous
Molecule: CC(C)(C)c1cc(C(C)(C)C)c(NC(=O)c2c[nH]c3ccccc3c2=O)cc1O [Form G ({drug7e}), N-[2,4-bis(1,1-dimethylethyl)-5-hydroxyphenyl]-1,4-dihydro-4-oxoquinoline-3-carboxamide]

XRPD pattern after attempted desolvation ([2]; ambient conditions for one month): same Form H
XRPD pattern after attempted desolvation ([2]; vacuum oven for one month): converted to a semi-crystalline form
Molecule: CC(C)(C)c1cc(C(C)(C)C)c(NC(=O)c2c[nH]c3ccccc3c2=O)cc1O [Form H ({drug7f}), N-[2,4-bis(1,1-dimethylethyl)-5-hydroxyphenyl]-1,4-dihydro-4-oxoquinoline-3-carboxamide]

XRPD pattern after attempted desolvation ([2]; ambient conditions for two weeks): same Form L
XRPD pattern after attempted desolvation ([2]; vacuum oven for 24 hours): converted to x-ray amorphous
Molecule: CC(C)(C)c1cc(C(C)(C)C)c(NC(=O)c2c[nH]c3ccccc3c2=O)cc1O [Form L ({drug7j}), N-[2,4-bis(1,1-dimethylethyl)-5-hydroxyphenyl]-1,4-dihydro-4-oxoquinoline-3-carboxamide]

water content of samples ([3]; >25% relative humidity): ~6 wt. %
Hygroscopicity ([3]; listed as fumaric acid salt): hygroscopic
Molecule: Fumaric acid
Hygroscopicity [3]: hygroscopic at ambient temperature and relative humidity conditions
